Results on 28 compounds are retold here after patent US5317019A, “Inhibition of interleukin-1 and tumor necrosis factor production by monocytes and/or macrophages” (priority 1991, dated 1994).

The first test deals with IL-1 production by human monocytes. As to the kind of experiment: In vitro IL-1 production by LPS-stimulated human monocytes. The format is cell-based. Particulars: Homo sapiens, Monocyte; Table 1; LPS 50 ng/ml, 24 h; read-out: IC50, effect on LPS-stimulated IL-1 production by human monocytes. Here is the method: Bacterial lipopolysaccharide (LPS) was used to induce IL-1 production by human peripheral blood monocytes. IL-1 activity was measured by its ability to stimulate a Interleukin 2 (IL-2) producing cell line […] to secrete IL-2, in concert with A23187 ionophore, according to the method of Simon et al., J. Immunol. […] The cells were allowed to adhere for 2 hours, after which time non-adherent cells were removed by gentle washing. […] At the end of the incubation period, culture supernatants were removed and clarified of cells and all debris.
With `COc1ccc(-c2nc3ccccn3c2-c2ccncc2)cc1` [Compound 7, 2-(4-methoxyphenyl)-3-(4-pyridyl)-imidazo-[1,2-a]-pyridine], the concentration for half-maximal inhibition (IC50) came to 1000 nM.
On the same count and under the same terms, in the case of `c1cc(-c2nc3n(c2-c2ccc4c(c2)OCO4)CCS3)ccn1` [Compound 8, 5-(3,4-(methylenedioxy)phenyl)-6-(4-pyridyl)-2,3-dihydroimidazo-[2-1-b]-thiazole] it was 10000 nM; in that of `COc1ccc(-c2nc3n(c2-c2ccnc(C)c2)CCC3)cc1` [Compound 9, 2-(4-methoxyphenyl)-3-(4-(2-methyl)pyridyl)-6,7-dihydro-[5H]-pyrrolo-[1,2-a]-imidazole], 700 nM; in that of `CC(=O)OCSc1ccc(-c2nc3n(c2-c2ccncc2)CCC3)cc1` [Compound 10, 2-(4-acetoxymethylthiophenyl)-3-(4-pyridyl)-6,7-dihydro-[5H]-pyrrolo-[1,2-a]-imidazole], 6300 nM.
For `CSc1ccc(-c2nc3n(c2-c2ccncc2)CCS3)cc1` [Compound 11, 6-(4-methylthiophenyl)-5-(4-pyridyl)-2,3-dihydro-imidazo-[2,1-b]-thiazole], the half-maximal inhibitory concentration (IC50) was determined as 1800 nM.
Still for that read-out and setting: with `CSc1ccc(-c2c(-c3ccncc3)nc3n2CCS3)cc1` [Compound 12, 5-(4-methylthiophenyl)-6-(4-pyridyl)-2,3-dihydro-imidazo-[2,1-b]-thiazole] the figure was 1800 nM; with `CSc1ccc(-c2c(-c3ccncc3)nc3n2CCC3)cc1` [Compound 13, 3-(4-methylthiophenyl)-2-(4-pyridyl)-6,7-dihydro-[5H]-pyrrolo-[1,2-a]-imidazole], 2000 nM.
The same measure, in the same setting: in the case of `CCCSc1ccc(-c2nc3n(c2-c2ccncc2)CCC3)cc1` [Compound 14, 2-(4-propylthiophenyl)-3-(4-pyridyl)-6,7-dihydro-[5H]-pyrrolo-[1,2-a]-imidazole] it was > 10000 nM; in that of `CCc1cc(-c2c(-c3ccc(SC)cc3)nc3n2CCC3)ccn1` [Compound 15, 2-(4-methylthiophenyl)-3-(4-(2-ethyl)pyridyl)-6,7-dihydro-[5H]-pyrrolo-[1,2-a-]-imidazole], 1300 nM.

The test is the same for the next values; noted with them: Homo sapiens, Monocyte; Table 3; read-out: IC50, inhibition of IL-1 production by LPS stimulated monocytes in vitro.
Turning to `CC(C)Oc1ccc(-c2nc3n(c2-c2ccncc2)CCC3)cc1` [Compound 17, 2-(4-(2-Propoxy)phenyl)-3-(4-pyridyl)-6,7-dihydro-[5H]-pyrrolo-[1,2-a]-imidazole], the 50% inhibitory concentration (IC50) is > 10000 nM.
Turning to `CCOc1ccc(-c2nc3n(c2-c2ccncc2)CCC3)cc1` [Compound 18, 2-(4-(1-Ethoxy)phenyl)-3-(4-pyridyl)-6,7-dihydro[5H]pyrrolo-[1,2-a]-imidazole], the concentration for half-maximal inhibition (IC50) was 10000 nM.
The same measure, in the same setting: in the case of `CCCOc1ccc(-c2nc3n(c2-c2ccncc2)CCC3)cc1` [Compound 19, 2-(4-(1-Propoxy)phenyl)-3-(4-pyridyl)-6,7-dihydro[5H]pyrrolo-[1,2-a]-imidazole] it was > 10000 nM.
`c1ccc(-c2nc3n(c2-c2ccncc2)CCC3)cc1` [Compound 22, 2-Phenyl-3-(4-pyridyl)-6,7-dihydro-[5H]-pyrrolo-[1,2-a]imidazole]: the 50% inhibitory concentration (IC50) was found to be 500 nM.
As to `c1cc(-c2c(-c3ccc(SSc4ccc(-c5nc6n(c5-c5ccncc5)CCC6)cc4)cc3)nc3n2CCC3)ccn1` [Compound 23, 2-(4-Mercaptophenyl)-3-(4-pyridyl)-6,7-dihydro-[5H]-pyrrolo-[1,2-a]-imidazole disulfide], the IC50 came out at 5900 nM.
The same measure, in the same setting: with `COc1ccc(-c2nc3n(c2-c2ccncc2)CCC3)cc1` [Compound 24, 2-(4-Methoxyphenyl)-3-(4-pyridyl)-6,7-dihydro-[5H]-pyrrolo-[1,2-a]-imidazole] the figure was 100 nM.
In the case of `COc1ccc(-c2nc3n(c2-c2ccncc2)CCS3)cc1` [Compound 25, 6-(4-Methoxyphenyl)-5-(4-pyridyl)-2,3-dihydroimidazo-[2,1-b]-thiazole], the IC50 stood at 3000 nM.
Regarding `COc1ccc(-c2c(-c3ccncc3)nc3n2CCS3)cc1` [Compound 26, 5-(4-Methoxyphenyl)-6-(4-pyridyl)-2,3-dihydroimidazole-[2,1-b]-thiazole], the half-inhibitory concentration (IC50) was ≥ 10000 nM.
For `Brc1ccc(-c2nc3n(c2-c2ccncc2)CCC3)cc1` [Compound 27, 2-(4-Bromophenyl)-3-(4-pyridyl)-6,7-dihydro-[5H]-pyrrolo-[1,2-a]-imidazole], the IC50 was 700 nM.

The same test, now with this note: Table 3; read-out: IC50, inhibition of IL-1 production by LPS stimulated monocytes in vitro.
“2-(Acetyl-thio-phenyl)-3-(4-pyridyl)-6,7-dihydro[5H]-pyrrolo-[1,2-a]-imidazole [Compound 20]”: the IC50 was > 10000 nM.
For the compound “2-[Trimethylacetyl(thiophenyl)]-3-(4-pyridyl)-6,7-dihydro[5H]pyrrolo-[1,2-a]-imidazole [Compound 16]”, the IC50 is > 10000 nM.
The same measure, in the same setting: with `COc1ccc(-c2c(-c3ccncc3)n3c([n+]2C)CCC3)cc1` [Compound 21, 2-(4-Methoxyphenyl)-3-(4-pyridyl)-6,7-dihydro-[5H]-pyrrolo-[1,2-a]-N-methylimidazole, monomethylsulfate] the figure was > 10000 nM.

A further test concerns TNF production by human monocytes. As to the kind of experiment: In vitro TNF production by LPS-stimulated human monocytes (ELISA). The test is classed as cell-based. Particulars: Homo sapiens, Monocyte; Table B; LPS 50 ng/ml, 24 h; read-out: IC50, LPS induced TNF human monocyte data. The procedure:
The effects of the compounds enumerated above on the in vitro production of TNF by human monocytes was examined using the following protocol.
Bacterial lipopolysaccharide (LPS) was used to induce TNF production by human peripheral blood monocytes. TNF activity was measured by a modification of Winston et al., ELISA, described below. […] The cells were allowed to adhere for 2 hours, after which time non-adherent cells were removed by gentle washing. […] At the end of the incubation period, culture supernatants were removed and clarified of cells and all debris. Culture supernatants were immediately assayed for TNF levels in the manner described below.
The Elisa employes a murine monoclonal anti-human TNF antibody, described below, as the capture antibody and a polyclonal rabbit anti-human TNF, described below, as the second antibody. […] TNF levels in samples were calculated from a standard curve genereated with recombinant human TNF produced in E. Coli (obtained from SmithKIine Beecham Pharmaceuticals, King of Prussia, Pa., USA).
Polyclonal rabbit anti-human TNF antibodies were prepared by repeated immunization of New Zeland White (NZW) rabbits with recombinant human TNF emulsified in complete Freund's adjuvant (DEFCO, Ill., USA).
For the compound `CC(=O)OCSc1ccc(-c2nc3n(c2-c2ccncc2)CCC3)cc1` [Compound 10, 2-(4-acetoxymethylthiophenyl)-3-(4-pyridyl)-6,7-dihydro-[5H]-pyrrolo-[1,2-a]-imidazole], the IC50 amounted to 3000 nM.
Consider `COc1ccc(-c2nc3n(c2-c2ccncc2)CCC3)cc1` [Compound 24, 2-(4-Methoxyphenyl)-3-(4-pyridyl)-6,7-dihydro-[5H]-pyrrolo-[1,2-a]-imidazole], for which the IC50 turned out to be 500 nM.
Turning to `COc1ccc(-c2nc3n(c2-c2ccncc2)CCC3=O)cc1` [Compound E, 2-(4-Methoxyphenyl)-3-(4-pyridyl)-7-oxo-5,6-dihydro-7-H-pyrrolo-[1,2-a]imidazole], the IC50 worked out at 1000 nM.
Same read-out and setting: in the case of `COc1ccc(-c2nc3n(c2-c2ccncc2)CCC3O)cc1` (stereo not drawn) [Compound F, 5,6-dihydro-2-(4-methoxyphenyl)-3-(4-pyridinyl)-[7H]-pyrrolo[1,2-a]-imidazole-7-ol] it was 1000 nM.
Same read-out and setting: with `[O-][S+]1CCn2c1nc(-c1ccc(F)cc1)c2-c1ccncc1` (stereo not drawn) [Compound I, 6-(4-Fluorophenyl)-5-(4'-pyridyl)-2,3-dihydroimidazo[2,1-b]thiazole-1-oxide] the figure was 200 nM; with `Fc1ccc(-c2nc3n(c2-c2ccncc2)CCC3)cc1` [Compound M, 2-(4-Fluorophenyl)-3-(4-pyridyl)-6,7-dihydro-[5H]-pyrrolo-[1,2-a]-imidazole], 200 nM; with `Fc1ccc(-c2c(-c3ccncc3)nc3n2CCC3)cc1` [Compound N, 3-(4-Fluorophenyl)-2-(4-pyridyl)-6,7-dihydro-[5H]-pyrrolo-[1,2-a]-imidazole], 1000 nM.

The test is the same for the next values; noted with them: Table B; LPS 50 ng/ml, 24 h; read-out: IC50, LPS induced TNF human monocyte data.
With “2-p-bromophenyl-3-pyridyl-6,7-dihydro-[5H]-pyrrolo-[1,2-a]-imidazole [Compound D]”, the half-maximal inhibitory concentration (IC50) is 1000 nM.
Same read-out and setting: in the case of “2-phenyl-3-pyridyl-6,7-dihydro-[5H]-pyrrolo[1,2-a]imidazole [Compound C]” it was 800 nM.

A word on the IC50: it is the concentration needed to halve the response being measured.
